{
  "source": "paper PMC9729826",
  "about": "“Hypoaminoacidemia underpins glucagon-mediated energy expenditure and weight loss” (Cell Reports Medicine, 2022)",
  "key": {"[1]": {"tested_on": "diet-induced obese (DIO) C57BL/6 mice", "assay": "Essential and non-essential amino acid supplementation in G108-treated DIO mice", "assay_type": "in vivo, mouse", "details": "7.5 nmol/kg daily, 14 days, n = 8/group", "description": "Lean 10-week-old C57BL/6 mice (N = 48) were provided ad libitum with a 60 kcal% high fat diet (diet D12492, Table S2) for 8 weeks. They were then provided with either a high fat standard protein diet (SP) (D08091803), a high fat standard protein diet supplemented with essential amino acids (SP + EAA) (Formula 2, Table S3), or a high fat standard protein diet supplemented with non-essential amino acids (SP + NEAA) (Formula 3, Table S3), N = 16/group. Mice from each diet group received either 7.5 nmol/kg G108 or vehicle control resulting in the following six treatment groups, N = 8/group: Vehicle/SP, 7.5 nmol/kg G108/SP, Vehicle/SP +EAA, 7.5 nmol/kg G108/SP + EAA, Vehicle/SP + NEAA, 7.5 nmol/kg G108 + NEAA. Food intake and body weight was measured every 48 h. Prior to commencing their respective diets, baseline body composition analysis was (EchoMRI) was carried out in addition to body composition analysis on day 11. Tail venesection was carried out on day 13 of the study 4 h following respective treatments. […]\n(§1) To measure energy expenditure, DIO mice were placed into a Comprehensive Laboratory Animal Monitoring System (CLAMS, Columbus instruments, Columbus, US). […] Food intake was also measured electronically without the need to remove food. […] Feed efficiency was calculated as mg body weight change per kJ consumed."}, "[2]": {"tested_on": "diet-induced obese (DIO) C57BL/6 mice", "assay": "Total amino acid supplementation in G108-treated DIO mice", "assay_type": "in vivo, mouse", "details": "n = 8/group", "description": "Lean 10-week-old C57BL/6 mice (N = 32) were provided ad libitum a 60 kcal% high fat diet (diet D12492, Table S2) ad libitum for 8 weeks. Half of the animals were then provided with a high fat standard protein diet (D08091803, Table S2) or a high fat standard protein diet supplemented with additional total amino acids (SP + TAA diet, Formula 1, Table S3). From each diet group, animals were allocated to receive either 7.5 nmol/kg G108 or vehicle control (N = 8/group). The subsequent four treatment groups were as follows: Vehicle/SP diet, G108/SP diet, Vehicle/SP + TAA diet, G108/SP + TAA diet. Food intake and body weight was recorded every 48 h during the study. Baseline body composition analysis (EchoMRI) was carried out in addition body composition analysis on day 18. […]\nas §1\nPlasma total amino acids were measured using fluorometric-based ELISA kits as described (MAK002, Sigma-Aldrich, Ab65347, Abcam). Plasma FGF21 was measured using a fluorescent based ELISA kit (ab229382, Abcam). Plasma triglyceride, cholesterol and leptin were measured using ELISA kits (ab65336, ab65390, ab199082, Abcam). […]"}, "[3]": {"assay": "Pharmacokinetic profile of G108 in rats (plasma radioimmunoassay)", "details": "rat, in vivo, sc, male Wistar rats, single 0.5 mg subcutaneous dose, sampled 1.5-72 h, n = 4, read-out: time at which peak plasma concentrations were achieved", "procedure": "10-week-old male Wistar rats (N = 4) were administered with 0.5 mg G108 via 100 μL subcutaneous injection. Tail venesection was performed to collect 100 μL blood samples prior to injection and at 1.5, 3, 6, 24, 48 and 72 h after injection. Blood samples were immediately frozen on ice, centrifuged at 8000 × g for 10 min at 4°C, and the plasma supernatant collected. Samples were stored at −20°C.\nAn in-house radioimmunoassay was used to determine peptide concentrations in the rat plasma. Antiserum (RA553/3) was produced in rabbits against the purified glucagon (1–16) fragment which specifically cross-reacted with the N-terminal glucagon-like sequence of G108. Direct iodination was used to produce Iodine-125 glucagon which was purified by reverse phase high pressure liquid chromatography. The assay was performed in a total volume of 700 μL of 0.06 M phosphate EDTA buffer containing 0.3% BSA. All samples were assayed in duplicate and the standard curve was set using 5 pmol/mL G108 in assay buffer. The assay was incubated for 3 nights at 4°C prior to separation via charcoal into free and antibody-bound label. A γ-counter was used to count the pellet and supernatant and the ratio of free to bound label was calculated. The plasma peptide concentration was calculated using two phase exponential decay with respect to the relevant standard curve."}, "lean C57BL/6 mice": {"tested_on": "lean C57BL/6 mice", "assay": "Blood glucose after a single dose in lean mice", "assay_type": "in vivo, mouse", "details": "10 nmol/kg single intraperitoneal injection, up to 2 h, n = 6/group", "procedure": "Twelve weight-matched 12-week-old lean C57BL/6 mice were fasted for 2 h prior to a single intraperitoneal injection of 10 nmol/kg dose of G108 diluted in sterile HPLC water (pH > 7), or vehicle control alone. Tail venesection was performed at baseline, 15, 30, 60 and 120 min and blood glucose measured using a handheld GlucoRx meter. For hepatic carbohydrate and amino acid metabolism gene expression analysis, weight-matched 12-week-old lean C57BL/6 mice were subcutaneously administered with 20 nmol/kg G108 diluted in sterile HPLC water (pH > 7), or vehicle control via subcutaneous injection at 9 am (N = 8). All animals had ad libitum access to RM1 diet and water. Liver tissue was dissected at 24 h and stored at −80°C prior to hepatic gene expression analysis."}},
  "note": "Starred links: 1 amine or outer side, 2 acyl side, 3 side chain; linkers in the order of their positions; H or OH if unused. Non-standard residues stand in square brackets, D forms with d. Residues, ends and D or L forms follow the SMILES beside them. Groups on a side chain read outwards from the residue. *: point of attachment. C18 diacid = O=C(O)CCCCCCCCCCCCCCCCC(=O)*; γGlu = O=C(O)[C@H](CCC(=O)[*:2])N[*:1]; Aib = CC(C)(N)C(=O)O",
  "data": [
    {"smiles": "CC[C@H](C)[C@H](NC(=O)[C@H](Cc1ccccc1)NC(=O)[C@H](CCC(=O)O)NC(=O)[C@H](CCC(N)=O)NC(=O)[C@H](C)NC(=O)[C@H](CCCNC(=N)N)NC(=O)[C@H](CCCCN)NC(=O)[C@H](C)NC(=O)[C@H](CC(=O)O)NC(=O)[C@H](CC(C)C)NC(=O)[C@H](Cc1ccc(O)cc1)NC(=O)[C@H](CCCNC(=N)N)NC(=O)[C@H](CO)NC(=O)[C@H](Cc1ccc(O)cc1)NC(=O)[C@H](CC(=O)O)NC(=O)[C@H](CO)NC(=O)[C@@H](NC(=O)[C@H](Cc1ccccc1)NC(=O)[C@@H](NC(=O)CNC(=O)[C@H](Cc1c[nH]cn1)NC(=O)C(C)(C)NC(=O)[C@@H](N)Cc1c[nH]cn1)[C@@H](C)O)[C@@H](C)O)C(=O)N[C@@H](CCC(=O)O)C(=O)N[C@@H](Cc1c[nH]c2ccccc12)C(=O)N[C@@H](CC(C)C)C(=O)N[C@@H](CC(C)C)C(=O)N[C@@H](CCC(N)=O)C(=O)N[C@@H](CO)C(=O)N[C@@H](Cc1c[nH]cn1)C(=O)N[C@@H](Cc1c[nH]cn1)C(=O)N[C@@H](CCC(N)=O)C(=O)N[C@@H](Cc1c[nH]cn1)C(=O)N[C@@H](Cc1c[nH]cn1)C(=O)N1CCC[C@H]1C(=O)N[C@@H](CO)C(=O)N1CCC[C@H]1C(=O)N1CCC[C@H]1C(=O)N1CCC[C@H]1C(=O)N[C@@H](CCCCNC(=O)[C@H](CC(N)=O)NC(=O)CC[C@H](NC(=O)CCCCCCCCCCCCCCCCC(=O)O)C(=O)O)C(N)=O", "note": "[Peptide G108] (H-H[Aib]HGTFTSDYSRYLDAKRAQEFIEWLLQSHHQHHPSPPPK([Asn-γGlu-C18 diacid])-NH2; N-terminus and C-terminus assumed)", "values": [
      {"measurement": "effects on weight loss and feed efficiency on SP diet supplemented with either EAAs or NEAAs", "setting": "[1]", "value": "not suppressed"},
      {"measurement": "body weight on SP diet supplemented with total amino acids (SP + TAA)", "setting": "[2]; 7.5 nmol/kg daily, 20 days", "value": "prevented G108-mediated weight loss independent of food intake"},
      {"measurement": "blood glucose over 4 hours after acute administration", "setting": "[2]; single 7.5 nmol/kg dose, following a transient increase", "value": "reduction in blood glucose that lasted several hours"},
      {"measurement": "Tmax", "setting": "[3]", "value": 24, "unit": "h"},
      {"measurement": "blood glucose after a single dose", "setting": "lean C57BL/6 mice", "value": "acute increase in blood glucose"}
    ]}
  ]
}
